This data set can be described thus: method code SF-HPLC, from DOI: 10.1023/a:1015933504191, PMID: 2122435. The conditions noted are these: pH 7.4.

One may read the logD as lipophilicity at a set pH, counting ionised and neutral species.

On to `NC(=O)[C@@H]1CCCN1C(=O)[C@H](Cc1cn(C(=O)OCc2ccccc2)cn1)NC(=O)[C@@H]1CCC(=O)N1`, for which the logD is -0.11. In the case of `CCCCOC(=O)n1cnc(C[C@H](NC(=O)[C@@H]2CCC(=O)N2)C(=O)N2CCC[C@H]2C(N)=O)c1`, the logD is -0.47. The value for `CCCCCCOC(=O)n1cnc(C[C@H](NC(=O)[C@@H]2CCC(=O)N2)C(=O)N2CCC[C@H]2C(N)=O)c1` was 0.71. Regarding `CC(C)OC(=O)n1cnc(C[C@H](NC(=O)[C@@H]2CCC(=O)N2)C(=O)N2CCC[C@H]2C(N)=O)c1`, the logD was -0.8.

As to `COC(=O)n1cnc(C[C@H](NC(=O)[C@@H]2CCC(=O)N2)C(=O)N2CCC[C@H]2C(N)=O)c1`, the logD is -1.88. On to `CCCCC(CC)COC(=O)n1cnc(C[C@H](NC(=O)[C@@H]2CCC(=O)N2)C(=O)N2CCC[C@H]2C(N)=O)c1` (some centres not stated), for which the logD was determined as 1.82. `CCCCCCCCOC(=O)n1cnc(C[C@H](NC(=O)[C@@H]2CCC(=O)N2)C(=O)N2CCC[C@H]2C(N)=O)c1` displayed a logD of 1.88. `CCCC(CCC)OC(=O)n1cnc(C[C@H](NC(=O)[C@@H]2CCC(=O)N2)C(=O)N2CCC[C@H]2C(N)=O)c1`: the logD turned out to be 1.2. The value for `CC(C)COC(=O)n1cnc(C[C@H](NC(=O)[C@@H]2CCC(=O)N2)C(=O)N2CCC[C@H]2C(N)=O)c1` was -0.44; that for `NC(=O)[C@@H]1CCCN1C(=O)[C@H](Cc1cn(C(=O)OC2CCCCC2)cn1)NC(=O)[C@@H]1CCC(=O)N1` was 0.6.

Turning to `CCOC(=O)n1cnc(C[C@H](NC(=O)[C@@H]2CCC(=O)N2)C(=O)N2CCC[C@H]2C(N)=O)c1`, the logD was -1.3.

With `CCC(CC)OC(=O)n1cnc(C[C@H](NC(=O)[C@@H]2CCC(=O)N2)C(=O)N2CCC[C@H]2C(N)=O)c1`, the logD worked out at 0.2.

(Values after the SangsterLogP compilation.)
